Data from ChEMBL document CHEMBL3860079, “Design and synthesis of novel HDAC8 inhibitory 2,5-disubstituted-1,3,4-oxadiazoles containing glycine and alanine hybrids with anti cancer activity” (Bioorg Med Chem, 2016).

Columns and labels:
Histone deacetylase 8 = target: T1, Histone deacetylase 8 (Homo sapiens, UniProt Q9BY41); test: Inhibition of recombinant human full length GST-tagged HDAC8 expressed in Escherichia coli DH5alpha (DE3) assessed as inhibition of deacetylation activity using Fluor-de-Lys as substrate measured after 15 mins by fluorimetric assay
T1 sequence (Q9BY41 whole entry): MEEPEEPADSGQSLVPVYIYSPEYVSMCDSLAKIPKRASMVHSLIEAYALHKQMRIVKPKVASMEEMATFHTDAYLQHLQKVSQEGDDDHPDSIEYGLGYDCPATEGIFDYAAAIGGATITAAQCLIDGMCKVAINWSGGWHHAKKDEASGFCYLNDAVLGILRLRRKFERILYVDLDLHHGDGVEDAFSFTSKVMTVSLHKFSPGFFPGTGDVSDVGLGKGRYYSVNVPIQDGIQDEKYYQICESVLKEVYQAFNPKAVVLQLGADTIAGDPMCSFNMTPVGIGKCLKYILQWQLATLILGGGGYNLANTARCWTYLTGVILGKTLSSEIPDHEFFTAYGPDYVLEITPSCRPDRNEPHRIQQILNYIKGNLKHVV

[1] = Cytotoxicity against human MDA-MB-231 cells assessed as reduction in cell viability measured after 24 hrs by MTT assay; type: functional, cell-based; conditions: MDA-MB-231, 24 h
Homo sapiens [2] = species: Homo sapiens; test: Selectivity ratio of IC50 for human full length GST-tagged HDAC8 expressed in Escherichia coli DH5alpha (DE3) to IC50 for HDAC2 in human MDA-MB-231 cells
[3] = target: T2, Histone deacetylase 8 (Homo sapiens) (UniProt Q9BY41); test: Inhibition of human HDAC8 immunoprecipitated from MDA-MB-231 cell lysates assessed as inhibition of deacetylation activity at 100 nM using Fluor-de-Lys as substrate measured after 15 mins by fluorimetric assay
T2 sequence (whole entry): T1 sequence (Q9BY41 whole entry)

Histone deacetylase 2 [4] = target: T3, Histone deacetylase 2 (Homo sapiens, UniProt Q92769); test: Inhibition of HDAC2 in human MDA-MB-231 cells assessed as inhibition of deacetylation activity using Fluor-de-Lys as substrate measured after 15 mins by fluorimetric assay; type: cell-based
Homo sapiens [5] = species: Homo sapiens; test: Selectivity ratio of IC50 for human full length GST-tagged HDAC8 expressed in Escherichia coli DH5alpha (DE3) to IC50 for HDAC1 in human MDA-MB-231 cells
Histone deacetylase 1 [6] = target: T4, Histone deacetylase 1 (Homo sapiens, UniProt Q13547); test: Inhibition of HDAC1 in human MDA-MB-231 cells assessed as inhibition of deacetylation activity using Fluor-de-Lys as substrate measured after 15 mins by fluorimetric assay; type: cell-based
Histone deacetylase 3 [7] = target: T5, Histone deacetylase 3 (Homo sapiens, UniProt O15379); test: Inhibition of HDAC3 in human MDA-MB-231 cells assessed as inhibition of deacetylation activity at 100 nM using Fluor-de-Lys as substrate measured after 15 mins by fluorimetric assay; type: cell-based
Histone deacetylase 1 [8] = target: T4, Histone deacetylase 1; test: Inhibition of HDAC1 in human MDA-MB-231 cells assessed as inhibition of deacetylation activity at 100 nM using Fluor-de-Lys as substrate measured after 15 mins by fluorimetric assay; type: cell-based
Histone deacetylase 2 [9] = target: T3, Histone deacetylase 2; test: Inhibition of HDAC2 in human MDA-MB-231 cells assessed as inhibition of deacetylation activity at 100 nM using Fluor-de-Lys as substrate measured after 15 mins by fluorimetric assay; type: cell-based
Histone deacetylase 3 [10] = target: T5, Histone deacetylase 3; test: Inhibition of HDAC3 in human MDA-MB-231 cells assessed as inhibition of deacetylation activity using Fluor-de-Lys as substrate measured after 15 mins by fluorimetric assay; type: cell-based

T4 sequence (Q13547 whole entry): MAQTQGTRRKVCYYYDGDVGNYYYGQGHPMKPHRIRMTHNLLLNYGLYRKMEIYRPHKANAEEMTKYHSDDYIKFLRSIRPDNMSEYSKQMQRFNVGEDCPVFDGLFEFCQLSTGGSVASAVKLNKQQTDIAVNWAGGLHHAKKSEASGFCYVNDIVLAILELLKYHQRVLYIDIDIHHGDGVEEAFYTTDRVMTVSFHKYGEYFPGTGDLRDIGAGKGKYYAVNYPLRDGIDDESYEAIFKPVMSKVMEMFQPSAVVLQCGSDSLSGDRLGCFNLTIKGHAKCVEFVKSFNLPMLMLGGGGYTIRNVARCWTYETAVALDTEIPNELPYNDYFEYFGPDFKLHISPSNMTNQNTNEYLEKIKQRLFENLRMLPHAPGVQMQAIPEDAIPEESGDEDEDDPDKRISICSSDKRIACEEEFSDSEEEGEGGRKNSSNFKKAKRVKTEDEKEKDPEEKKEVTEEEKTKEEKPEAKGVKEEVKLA
T5 sequence (O15379 whole entry): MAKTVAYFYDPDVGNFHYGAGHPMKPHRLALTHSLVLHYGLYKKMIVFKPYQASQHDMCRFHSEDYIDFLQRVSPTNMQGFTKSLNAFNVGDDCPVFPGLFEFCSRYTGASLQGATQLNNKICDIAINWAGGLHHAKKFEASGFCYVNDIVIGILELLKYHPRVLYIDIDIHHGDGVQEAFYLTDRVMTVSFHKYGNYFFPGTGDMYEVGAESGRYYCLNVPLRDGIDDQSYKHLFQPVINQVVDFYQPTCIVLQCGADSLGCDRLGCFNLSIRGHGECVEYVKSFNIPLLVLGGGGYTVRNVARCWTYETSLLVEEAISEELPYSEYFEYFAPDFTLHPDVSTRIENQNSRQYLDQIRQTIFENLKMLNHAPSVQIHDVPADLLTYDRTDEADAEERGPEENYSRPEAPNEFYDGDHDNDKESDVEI
T3 sequence (Q92769 whole entry): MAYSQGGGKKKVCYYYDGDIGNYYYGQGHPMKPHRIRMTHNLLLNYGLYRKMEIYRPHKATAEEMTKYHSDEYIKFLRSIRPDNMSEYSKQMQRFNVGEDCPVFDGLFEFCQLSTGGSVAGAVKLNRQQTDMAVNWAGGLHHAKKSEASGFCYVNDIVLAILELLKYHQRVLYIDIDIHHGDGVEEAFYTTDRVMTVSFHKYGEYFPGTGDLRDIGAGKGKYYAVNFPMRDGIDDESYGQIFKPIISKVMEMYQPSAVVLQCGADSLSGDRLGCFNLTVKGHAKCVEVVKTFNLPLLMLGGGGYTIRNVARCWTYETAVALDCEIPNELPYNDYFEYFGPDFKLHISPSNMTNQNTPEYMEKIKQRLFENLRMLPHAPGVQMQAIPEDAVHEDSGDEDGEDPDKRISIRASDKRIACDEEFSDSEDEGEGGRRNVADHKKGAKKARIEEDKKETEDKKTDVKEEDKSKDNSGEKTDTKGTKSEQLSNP

C[C@@H](N)C(=O)NCc1nnc(-c2ccc([N+](=O)[O-])cc2)o1
IC50 (Histone deacetylase 8): 127 nM
IC50 [1]: 261 nM

C[C@@H](N)C(=O)NCc1nnc(-c2ccc(F)cc2)o1
IC50 (Histone deacetylase 8): 116 nM
IC50 [1]: 247 nM

Cc1ccc(-c2nnc(CNC(=O)[C@@H](C)N)o2)cc1
IC50 (Histone deacetylase 8): 121 nM
IC50 [1]: 254 nM

COc1ccc(-c2nnc(CNC(=O)[C@@H](C)N)o2)cc1
IC50 (Histone deacetylase 8): 153 nM
IC50 [1]: 295 nM

C[C@@H](N)C(=O)NCc1nnc(-c2ccccc2)o1
Ratio IC50 (Homo sapiens [2]): 0.74
IC50 (Histone deacetylase 8): 98 to 100 nM
inhibition [3]: 53%
IC50 (Histone deacetylase 2 [4]): 135 nM
Ratio IC50 (Homo sapiens [5]): 0.38
IC50 (Histone deacetylase 1 [6]): 260 nM
inhibition (Histone deacetylase 3 [7]): 0%
inhibition (Histone deacetylase 1 [8]): 30%
inhibition (Histone deacetylase 2 [9]): 19%
IC50 [1]: 230 nM
IC50 (Histone deacetylase 3 [10]): > 10 µM

NCC(=O)NCc1nnc(-c2ccccc2)o1
IC50 (Histone deacetylase 8): 155 nM
IC50 [1]: 283 nM

NCC(=O)NCc1nnc(-c2ccc(F)cc2)o1
IC50 (Histone deacetylase 8): 135 nM
IC50 [1]: 254 nM

NCC(=O)NCc1nnc(-c2ccc([N+](=O)[O-])cc2)o1
IC50 (Histone deacetylase 8): 134 nM
IC50 [1]: 276 nM

COc1ccc(-c2nnc(CNC(=O)CN)o2)cc1
IC50 (Histone deacetylase 8): 142 nM
IC50 [1]: 276 nM

Cc1ccc(-c2nnc(CNC(=O)CN)o2)cc1
IC50 (Histone deacetylase 8): 139 nM
IC50 [1]: 260 nM
